Experimental data from the supplement of paper PMC9663587.

What was measured:
[1] = compound: CCN1CCN(Cc2ccc(Nc3ncc(F)c(-c4cc(F)c5nc(C)n(C(C)C)c5c4)n3)nc2)CC1; experiment: increase in dead-cell fraction, 72 h; higher = more death;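 also: breast cancer cell lines in 384-well plates, stained with Hoechst plus LIVE/DEAD far red dye and imaged, cells above an LDR intensity threshold counted dead, Hoechst-negative corpses included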
Flavopiridol [2] = compound: T1, CN1CC[C@H](c2c(O)cc(O)c3c(=O)cc(-c4ccccc4Cl)oc23)[C@H](O)C1 [Flavopiridol]; experiment: as above
THZ531 = compound: CN(C)C/C=C/C(=O)Nc1ccc(C(=O)N2CCC[C@@H](Nc3ncc(Cl)c(-c4c[nH]c5ccccc45)n3)C2)cc1 [THZ531]; experiment: GR value, 72 h; higher = faster growth (1 = untreated, <0 = killing);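 also: breast cancer and non-malignant breast epithelial lines, nine half-log doses, viable cells counted by Hoechst and LIVE/DEAD dye imaging versus time-zero plates and DMSO controls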
Neratinib/HKI272 = compound: CCOc1cc2ncc(C#N)c(Nc3ccc(OCc4ccccn4)c(Cl)c3)c2cc1NC(=O)/C=C/CN(C)C [Neratinib/HKI272]; experiment: as above
[3] = compound: CCN1CCN(Cc2ccc(Nc3ncc(F)c(-c4cc(F)c5nc(C)n(C(C)C)c5c4)n3)nc2)CC1; experiment: as above
[4] = compound: CCc1cnn2c(NCc3ccc[n+]([O-])c3)cc(N3CCCC[C@H]3CCO)nc12; experiment: as above
THZ1 = compound: CN(C)C/C=C/C(=O)Nc1ccc(C(=O)Nc2cccc(Nc3ncc(Cl)c(-c4c[nH]c5ccccc45)n3)c2)cc1 [THZ1]; experiment: as above
Flavopiridol [5] = compound: T1, Flavopiridol; experiment: as above
BSJ-03-123 = compound: CC(=O)c1c(C)c2cnc(Nc3ccc(N4CCN(CCOCCOCCOCCNC(=O)COc5cccc6c5C(=O)N(C5CCC(=O)NC5=O)C6=O)CC4)cn3)nc2n(C2CCCC2)c1=O [BSJ-03-123]; experiment: as above
[6] = compound: CC(=O)c1c(C)c2cnc(Nc3ccc(N4CCNCC4)cn3)nc2n(C2CCCC2)c1=O; experiment: as above
LEE011/Ribociclib = compound: CN(C)C(=O)c1cc2cnc(Nc3ccc(N4CCNCC4)cn3)nc2n1C1CCCC1 [LEE011/Ribociclib]; experiment: as above
YKL-5-124 = compound: C=CC(=O)Nc1ccc(C(=O)Nc2[nH]nc3c2CN(C(=O)N[C@H](CN(C)C)c2ccccc2)C3(C)C)cc1 [YKL-5-124]; experiment: as above

MDAMB436
increase in dead-cell fraction ([1]; 0.001 µM): 0.0024 | increase in dead-cell fraction ([1]; 0.003162 µM): -0.005 | increase in dead-cell fraction ([1]; 0.01 µM): 0.0007 | increase in dead-cell fraction ([1]; 0.03162 µM): -0.0009 | increase in dead-cell fraction ([1]; 0.1 µM): 0.0076 | increase in dead-cell fraction ([1]; 0.3162 µM): 0.0116 | increase in dead-cell fraction ([1]; 1 µM): 0.0346 | increase in dead-cell fraction ([1]; 3.162 µM): 0.0531 | increase in dead-cell fraction ([1]; 10 µM): 0.316 | increase in dead-cell fraction (Flavopiridol [2]; 0.0001 µM): 0.003 | increase in dead-cell fraction (Flavopiridol [2]; 0.0003162 µM): -0.0059 | increase in dead-cell fraction (Flavopiridol [2]; 0.001 µM): -0.0173 | increase in dead-cell fraction (Flavopiridol [2]; 0.003162 µM): 0.0048 | increase in dead-cell fraction (Flavopiridol [2]; 0.01 µM): -0.0068 | increase in dead-cell fraction (Flavopiridol [2]; 0.03162 µM): -0.002 | increase in dead-cell fraction (Flavopiridol [2]; 0.1 µM): 0.0119 | increase in dead-cell fraction (Flavopiridol [2]; 0.3162 µM): 0.0798 | increase in dead-cell fraction (Flavopiridol [2]; 1 µM): 0.0954 | GR value (THZ531; 0.0001 µM): 1.1 GR | GR value (THZ531; 0.0003162 µM): 1.02 GR | GR value (THZ531; 0.001 µM): 0.944 GR | GR value (THZ531; 0.003162 µM): 1.07 GR | GR value (THZ531; 0.01 µM): 1.12 GR | GR value (THZ531; 0.03162 µM): 1.01 GR | GR value (THZ531; 0.1 µM): 0.676 GR | GR value (THZ531; 0.3162 µM): 0.328 GR | GR value (THZ531; 1 µM): 0.0201 GR | GR value (Neratinib/HKI272; 0.0003162 µM): 1 GR | GR value (Neratinib/HKI272; 0.001 µM): 0.997 GR | GR value (Neratinib/HKI272; 0.003162 µM): 1.03 GR | GR value (Neratinib/HKI272; 0.01 µM): 1.04 GR | GR value (Neratinib/HKI272; 0.03162 µM): 0.993 GR | GR value (Neratinib/HKI272; 0.1 µM): 0.878 GR | GR value (Neratinib/HKI272; 0.3162 µM): 0.641 GR | GR value (Neratinib/HKI272; 1 µM): 0.43 GR | GR value (Neratinib/HKI272; 3.162 µM): 0.0253 GR | GR value ([3]; 0.001 µM): 1.04 GR | GR value ([3]; 0.003162 µM): 1 GR | GR value ([3]; 0.01 µM): 1.04 GR | GR value ([3]; 0.03162 µM): 1.03 GR | GR value ([3]; 0.1 µM): 1.02 GR | GR value ([3]; 0.3162 µM): 1 GR | GR value ([3]; 1 µM): 0.719 GR | GR value ([3]; 3.162 µM): 0.337 GR | GR value ([3]; 10 µM): -0.322 GR | GR value ([4]; 0.0001 µM): 0.969 GR | GR value ([4]; 0.0003162 µM): 1.01 GR | GR value ([4]; 0.001 µM): 1.07 GR | GR value ([4]; 0.003162 µM): 1.11 GR | GR value ([4]; 0.01 µM): 0.868 GR | GR value ([4]; 0.03162 µM): -0.101 GR | GR value ([4]; 0.1 µM): -0.124 GR | GR value ([4]; 0.3162 µM): -0.0986 GR | GR value ([4]; 1 µM): -0.15 GR | GR value (THZ1; 0.0001 µM): 0.928 GR | GR value (THZ1; 0.0003162 µM): 1.07 GR | GR value (THZ1; 0.001 µM): 1.03 GR | GR value (THZ1; 0.003162 µM): 1.02 GR | GR value (THZ1; 0.01 µM): 1.1 GR | GR value (THZ1; 0.03162 µM): 1.02 GR | GR value (THZ1; 0.1 µM): 0.478 GR | GR value (THZ1; 0.3162 µM): 0.229 GR | GR value (THZ1; 1 µM): -0.138 GR | GR value (Flavopiridol [5]; 0.0001 µM): 0.988 GR | GR value (Flavopiridol [5]; 0.0003162 µM): 0.97 GR | GR value (Flavopiridol [5]; 0.001 µM): 0.97 GR | GR value (Flavopiridol [5]; 0.003162 µM): 0.889 GR | GR value (Flavopiridol [5]; 0.01 µM): 1.01 GR | GR value (Flavopiridol [5]; 0.03162 µM): 0.905 GR | GR value (Flavopiridol [5]; 0.1 µM): 0.701 GR | GR value (Flavopiridol [5]; 0.3162 µM): 0.125 GR | GR value (Flavopiridol [5]; 1 µM): -0.0603 GR | GR value (BSJ-03-123; 0.001 µM): 1.1 GR | GR value (BSJ-03-123; 0.003162 µM): 1.07 GR | GR value (BSJ-03-123; 0.01 µM): 1.02 GR | GR value (BSJ-03-123; 0.03162 µM): 1.03 GR | GR value (BSJ-03-123; 0.1 µM): 1.11 GR | GR value (BSJ-03-123; 0.3162 µM): 0.971 GR | GR value (BSJ-03-123; 1 µM): 0.999 GR | GR value (BSJ-03-123; 3.162 µM): 0.966 GR | GR value (BSJ-03-123; 10 µM): -0.0484 GR | GR value ([6]; 0.0003162 µM): 1.06 GR | GR value ([6]; 0.001 µM): 1.04 GR | GR value ([6]; 0.003162 µM): 1.03 GR | GR value ([6]; 0.01 µM): 1.04 GR | GR value ([6]; 0.03162 µM): 0.977 GR | GR value ([6]; 0.1 µM): 1.03 GR | GR value ([6]; 0.3162 µM): 1.01 GR | GR value ([6]; 1 µM): 1.09 GR | GR value ([6]; 3.162 µM): 1.02 GR | GR value (LEE011/Ribociclib; 0.001 µM): 0.982 GR | GR value (LEE011/Ribociclib; 0.003162 µM): 1.05 GR | GR value (LEE011/Ribociclib; 0.01 µM): 1.06 GR | GR value (LEE011/Ribociclib; 0.03162 µM): 1.08 GR | GR value (LEE011/Ribociclib; 0.1 µM): 0.913 GR | GR value (LEE011/Ribociclib; 0.3162 µM): 1.03 GR | GR value (LEE011/Ribociclib; 1 µM): 0.95 GR | GR value (LEE011/Ribociclib; 3.162 µM): 0.982 GR | GR value (LEE011/Ribociclib; 10 µM): 0.951 GR | GR value (YKL-5-124; 0.001 µM): 0.84 GR | GR value (YKL-5-124; 0.003162 µM): 0.563 GR | GR value (YKL-5-124; 0.01 µM): 0.533 GR | GR value (YKL-5-124; 0.03162 µM): 0.432 GR | GR value (YKL-5-124; 0.1 µM): 0.409 GR | GR value (YKL-5-124; 0.3162 µM): 0.3 GR | GR value (YKL-5-124; 1 µM): 0.405 GR | GR value (YKL-5-124; 3.162 µM): 0.291 GR | GR value (YKL-5-124; 10 µM): -0.0192 GR
